# System: 422866-222-R5-J1-PDC spheroids with HUVEC/MSC, viability
# Assay: Anticancer human tumor 422866-222-R5-J1-PDC patient-derived pancreatic adenocarcinoma cell line growth inhibition [GQUAD]
# Details: for IC50: curve of first compound; for viability, T/C: stronger effect = lower value
# Source text: DNA G-quadruplex Stabilizer Agents in Combinations in Complex Spheroids
# A high-throughput screen of multi-cell type tumor spheroids was designed to identify active combinations of DNA G-quadruplex stabilizer agents and targeted small molecules. Complex spheroids include a stromal component modeled by human endothelial cells (HUVEC) and fibroblasts modeled by human mesenchymal stem cells (MSCs). The concentration ranges selected for each drug and investigational agent were based upon clinically achievable concentrations if the clinical Cmax of the agent was known.
# Compounds. The drugs and investigational agents: pidnarulex (CX-5461; NSC782164), APTO-253 (NSC789042), BRACO-19 (NSC847499), peposertib (NSC802822), ceralasertib (NSC780249), elimusertib (NSC800525), camonsertib (NSC841442), AZD-1390 (NSC803789), olaparib (NSC753686), talazoparib (NSC767125), ART-558 (NSC835418), sotorasib (NSC818433), MRTX-1133 (NSC836407), SN-38 (NSC673596), topotecan (NSC609699), etoposide (NSC141540), doxorubicin (NSC123127), gemcitabine (NSC613327), 5-fluorouracil (NSC19893), paclitaxel (NSC125973), vemurafenib (NSC761431), panobinostat (NSC761190), R-306465 (JNJ-16241199; NSC773264), adavosertib (NSC754352), TP-3654 (NSC805149), carboplatin (NSC241240), KSQ-4279 (NSC840948), and staurosporine (NSC755774) were obtained from the National Cancer Institute (NCI) Developmental Therapeutics Program Chemical Repository (34). The FDA-approved anticancer drug set is available from the NCI Developmental Therapeutics Program. […] The stock solutions were prepared in dimethyl sulfoxide (DMSO, Sigma-Aldrich, St. Louis, MO, cat. D2650) at 800-fold the tested concentration and stored at -70 degrees C prior to their use. All drugs and investigational agents were tested over a range starting from a high concentration at or near the clinical Cmax and decreasing in half-log increments. If the clinical Cmax for an agent had not been determined, the highest concentration tested was 10 microM.
# 2.3 Cell Culture. All cells were maintained in an incubator at 37 degrees C and 5% CO2 with 95% humidity. The PDC lines were cultured according to standard operating procedures established by the NCI PDMR. All PDCs were thawed and cultured in Matrigel-coated flasks prepared with a working solution of 1X Ham's F-12 nutrient mix, without supplementation (Invitrogen, cat. 11765054), 100 U/mL penicillin-streptomycin (Invitrogen, cat. 15140122), and 2.5% Matrigel (Corning Inc., cat. 354248) for the first three passages. The 857933-349-R-J2-PDC line was cultured in 6C/Colon 1B media, which includes advanced DMEM/F-12 (Thermo Fisher Scientific, cat. 12634028), 10 mM HEPES (Thermo Fisher Scientific, cat. 15630080), 1X GlutaMAX supplement (Thermo Fisher Scientific, cat. 35050061), 0.1 mg/mL primocin (InvivoGen, cat. ant-pm-2), 10% defined fetal bovine serum, heat inactivated (HyClone Laboratories Inc., cat. SH30070.03HI), 50% L-WRN conditioned media (ATCC, cat. CRL-3276), 1.25 mM N-Acetyl-L-cysteine (Sigma-Aldrich, cat. A9165), 10 mM nicotinamide (Sigma-Aldrich, cat. N0636), 1X B-27 supplement (Thermo Fisher Scientific, cat. 17504044), 1X N-2 supplement (Thermo Fisher Scientific, cat. 17502048), 10 microM Y-27632 dihydrochloride (Tocris Bioscience, cat. 1254), and 50 ng/mL human EGF recombinant protein (Thermo Fisher Scientific, cat. PHG0311). The 485176-168-R4-J1-PDC line was cultured in Panc media, which includes all 6C/Colon 1B media components plus 100 ng/mL human FGF-10 (Thermo Fisher Scientific, cat. 100-26), 500 nM SB-431542 (Selleckchem, cat. S1067), and gastrin (Tocris, cat. 3006).
# […]
# 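Note: spheroids exposed to compounds for seven days before reading.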
# 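Throughout, for viability, T/C: percent viability relative to DMSO vehicle control taken as 100%.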
compound,measurement,setting,value
COc1ncnc(C2CC2)c1-c1ncc2cnn(Cc3ccc(-c4nc(C(F)(F)F)cn4C(C)C)cc3)c2n1 + CN(C)c1ccc(Nc2c3ccc(NC(=O)CCN4CCCC4)cc3nc3cc(NC(=O)CCN4CCCC4)ccc23)cc1,IC50,second compound 0.0316 µM,> 10 µM
same,IC50,second compound 0.1 µM,> 10 µM
same,IC50,second compound 0.316 µM,> 10 µM
same,IC50,second compound 1 µM,> 10 µM
same,IC50,second compound 3.16 µM,> 10 µM
same,IC50,second compound 10 µM,> 10 µM
same,"viability, T/C","second compound 0.0316 µM, first compound 0.0316 µM",92.7%
same,"viability, T/C","second compound 0.0316 µM, first compound 0.1 µM",88.3%
same,"viability, T/C","second compound 0.0316 µM, first compound 0.316 µM",124%
same,"viability, T/C","second compound 0.0316 µM, first compound 1 µM",93%
same,"viability, T/C","second compound 0.0316 µM, first compound 3.16 µM",90%
same,"viability, T/C","second compound 0.0316 µM, first compound 10 µM",104%
same,"viability, T/C","second compound 0.1 µM, first compound 0.0316 µM",116%
same,"viability, T/C","second compound 0.1 µM, first compound 0.1 µM",104%
same,"viability, T/C","second compound 0.1 µM, first compound 0.316 µM",109%
same,"viability, T/C","second compound 0.1 µM, first compound 1 µM",94.9%
same,"viability, T/C","second compound 0.1 µM, first compound 3.16 µM",100%
same,"viability, T/C","second compound 0.1 µM, first compound 10 µM",100%
same,"viability, T/C","second compound 0.316 µM, first compound 0.0316 µM",104%
same,"viability, T/C","second compound 0.316 µM, first compound 0.1 µM",89.8%
same,"viability, T/C","second compound 0.316 µM, first compound 0.316 µM",100%
same,"viability, T/C","second compound 0.316 µM, first compound 1 µM",94.3%
same,"viability, T/C","second compound 0.316 µM, first compound 3.16 µM",106%
same,"viability, T/C","second compound 0.316 µM, first compound 10 µM",100%
same,"viability, T/C","second compound 1 µM, first compound 0.0316 µM",90.7%
same,"viability, T/C","second compound 1 µM, first compound 0.1 µM",92.2%
same,"viability, T/C","second compound 1 µM, first compound 0.316 µM",101%
same,"viability, T/C","second compound 1 µM, first compound 1 µM",90.9%
same,"viability, T/C","second compound 1 µM, first compound 3.16 µM",97.1%
same,"viability, T/C","second compound 1 µM, first compound 10 µM",84.5%
same,"viability, T/C","second compound 3.16 µM, first compound 0.0316 µM",85.8%
same,"viability, T/C","second compound 3.16 µM, first compound 0.1 µM",102%
same,"viability, T/C","second compound 3.16 µM, first compound 0.316 µM",101%
same,"viability, T/C","second compound 3.16 µM, first compound 1 µM",92.9%
same,"viability, T/C","second compound 3.16 µM, first compound 3.16 µM",103%
same,"viability, T/C","second compound 3.16 µM, first compound 10 µM",69.9%
same,"viability, T/C","second compound 10 µM, first compound 0.0316 µM",98.6%
same,"viability, T/C","second compound 10 µM, first compound 0.1 µM",109%
same,"viability, T/C","second compound 10 µM, first compound 0.316 µM",104%
same,"viability, T/C","second compound 10 µM, first compound 1 µM",69.3%
same,"viability, T/C","second compound 10 µM, first compound 3.16 µM",86.8%
same,"viability, T/C","second compound 10 µM, first compound 10 µM",58%
